Test systems include OVCAR-5; UO-31; K562; HCT-116; UACC-62; KM12; SF-539; OVCAR-3; RPMI-8226; SF-295; HOP-62; CCRF-CEM; U-251; SNB-75; SK-OV-3.
Holding throughout (experiment): growth of human tumour cells (NCI), 48 h

Molecules are shown by their SMILES.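 Interpolation was linear, between the two tested concentrations surrounding the appropriate level; five concentrations were tested over 48 hours in 96-well plates. Here, GI50 denotes the concentration required for 50% inhibition of growth.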 Activity calls are given as the source filed them. Rule as the data show it: active = GI50 up to about 1.1 µM and inactive = higher.

Regarding `C#CCN(Cc1ccc2nc(-c3ccccc3)c(Cl)nc2c1)c1cc(OC)c(OC)c(OC)c1`, the GI50 in the experiment with OVCAR-5 was > 100 µM (inactive); in the experiment on UO-31, > 100 µM (inactive); in the experiment on K562, 20.1 µM (inactive); in the experiment on HCT-116, 40.5 µM (inactive); in the experiment with UACC-62 it was > 100 µM (inactive); in the experiment on KM12, > 100 µM (inactive). The GI50 in the experiment on SF-539 was > 100 µM (inactive); with OVCAR-3, > 100 µM (inactive); in the experiment on RPMI-8226, 16.1 µM (inactive); in the experiment on SF-295 it was > 100 µM (inactive); in the experiment with HOP-62 it was > 100 µM (inactive); with CCRF-CEM it was 37.2 µM (inactive). The figures for the GI50 in the experiment with U-251, with SNB-75 and in the experiment on SK-OV-3 were 27 µM (inactive), > 100 µM (inactive) and > 100 µM (inactive), respectively.

Turning to `COC(=O)C(C)Oc1ccc(O)cc1` (configuration not stated), the GI50 was > 100 µM (inactive) with OVCAR-5; > 100 µM (inactive) in the experiment with UO-31; > 100 µM (inactive) in the experiment on K562; 20.9 µM (inactive) in the experiment with HCT-116; > 100 µM (inactive) in the experiment on UACC-62; > 100 µM (inactive) in the experiment with KM12. Moreover, the GI50 in the experiment on SF-539, in the experiment with OVCAR-3, in the experiment on RPMI-8226, in the experiment with SF-295, with HOP-62 and in the experiment on CCRF-CEM was > 100 µM (inactive) throughout. For the same molecule, the GI50 in the experiment with U-251, in the experiment with SNB-75 and in the experiment with SK-OV-3 was > 100 µM (inactive) in each case.

Turning to `CC(C)=Cc1cc(C(=O)Nc2ccc(Cl)c(Cl)c2)nc(N)n1`, the GI50 in the experiment with OVCAR-5, in the experiment with UO-31, with K562, with HCT-116, with UACC-62 and in the experiment with KM12 was > 100 µM (inactive) each time. The GI50 in the experiment with SF-539, in the experiment on OVCAR-3, in the experiment with RPMI-8226, in the experiment with SF-295, in the experiment on HOP-62 and with U-251 was > 100 µM (inactive) throughout. Also, the GI50 with SNB-75 was > 100 µM (inactive).

As to `CN(C)CC(/C(Cc1ccccc1)=N\NC(=O)c1ccncc1)c1ccccc1` (configuration not stated), the GI50 with OVCAR-5 is 83.8 µM (inactive); with K562 it was 31.2 µM (inactive); in the experiment with UACC-62, 31 µM (inactive); in the experiment with SF-539 it was 43.7 µM (inactive); in the experiment with OVCAR-3, 20.1 µM (inactive); in the experiment on RPMI-8226, 16.4 µM (inactive). The GI50 was 17.4 µM (inactive) with SF-295; 33.8 µM (inactive) with HOP-62; 17.2 µM (inactive) in the experiment on CCRF-CEM; 36.1 µM (inactive) with SNB-75; 38 µM (inactive) with SK-OV-3.

As for `O=C1C=Cc2noc3cccc1c23`, the GI50 was 14.5 µM (inactive) in the experiment on OVCAR-5; 4.62 µM (inactive) in the experiment with UO-31; 2.5 µM (inactive) with K562; 2.11 µM (inactive) in the experiment with HCT-116; 3.06 µM (inactive) in the experiment with UACC-62; 4.85 µM (inactive) with KM12. The GI50 was 16.4 µM (inactive) in the experiment on SF-539; 3.31 µM (inactive) in the experiment with OVCAR-3; 2.01 µM (inactive) with RPMI-8226; 18.6 µM (inactive) in the experiment on SF-295; 0.412 µM (active) in the experiment with CCRF-CEM; 13.4 µM (inactive) with U-251. The GI50 in the experiment on SNB-75 is 11.6 µM (inactive); in the experiment on SK-OV-3, 18.1 µM (inactive).

As for `COc1c(Br)cc(Br)c(OC)c1-c1[nH]c(Br)c(Br)c1Br`, the GI50 in the experiment on OVCAR-5 was 14.3 µM (inactive); in the experiment on UO-31, 2.13 µM (inactive); in the experiment with K562 it was 4.01 µM (inactive); with HCT-116, 3.25 µM (inactive); with UACC-62, 6.98 µM (inactive); in the experiment on KM12 it was 4.48 µM (inactive). Moreover, the GI50 in the experiment on SF-539 was 9.98 µM (inactive); in the experiment with OVCAR-3, 3.66 µM (inactive); in the experiment on RPMI-8226 it was 3.39 µM (inactive); in the experiment on SF-295, 4.63 µM (inactive); with HOP-62, 8.22 µM (inactive); with CCRF-CEM, 4.34 µM (inactive). In addition, the GI50 in the experiment on U-251 is 10.4 µM (inactive); in the experiment on SNB-75 it was 4.45 µM (inactive); in the experiment on SK-OV-3, 13.6 µM (inactive).

`Cc1ccc2nc(NC(=O)C(=O)C(C#N)c3ccc(Cl)cc3)sc2c1` (configuration not stated): the GI50 in the experiment with OVCAR-5, in the experiment on UO-31, in the experiment on HCT-116, with UACC-62, in the experiment on KM12 and in the experiment on SF-539 was > 50 µM (inactive) each time. Also, the GI50 in the experiment with OVCAR-3, in the experiment on RPMI-8226, in the experiment with SF-295, in the experiment on HOP-62, with U-251 and in the experiment on SNB-75 was > 50 µM (inactive) each time. Further, the GI50 with SK-OV-3 is > 50 µM (inactive).

With `O=C(OCc1ccccc1)N1N=NC2C3CC(OCc4ccccc4)(OCc4ccccc4)C(O3)C21` (configuration not stated), the GI50 with OVCAR-5 was 26 µM (inactive); with UO-31 it was 4.65 µM (inactive); with K562 it was 11 µM (inactive); in the experiment with UACC-62 it was 17.1 µM (inactive); in the experiment with KM12, 36.3 µM (inactive); in the experiment on SF-539, 32.7 µM (inactive). The GI50 is 16.6 µM (inactive) in the experiment with OVCAR-3; 7.24 µM (inactive) with RPMI-8226; 22.1 µM (inactive) in the experiment on SF-295; 24.7 µM (inactive) in the experiment on HOP-62; 21.3 µM (inactive) in the experiment with CCRF-CEM; 40.6 µM (inactive) in the experiment on U-251. For the same molecule, the GI50 in the experiment on SNB-75 was 24.3 µM (inactive); with SK-OV-3 it was 99.3 µM (inactive).

As for `O=C(CC1=Nc2nnc(-c3nnc4n3C(=O)C(CC(=O)C3CC3)=N4)n2C1=O)C1CC1`, the GI50 in the experiment with OVCAR-5, with UO-31, in the experiment with K562, with HCT-116, with UACC-62 and with KM12 was > 100 µM (inactive) each time. Further, the GI50 with SF-539, with OVCAR-3, in the experiment on RPMI-8226, in the experiment on SF-295, in the experiment with HOP-62 and in the experiment with CCRF-CEM was > 100 µM (inactive) each time. Further, the GI50 in the experiment with U-251, in the experiment with SNB-75 and in the experiment on SK-OV-3 was > 100 µM (inactive) throughout.

As to `CNc1nc(N)cc(O)n1`, the GI50 in the experiment with OVCAR-5, in the experiment on UO-31, in the experiment with K562, with HCT-116, with UACC-62 and in the experiment on KM12 was > 100 µM (inactive) in each case. The GI50 with OVCAR-3, in the experiment on RPMI-8226, in the experiment with SF-295, in the experiment with HOP-62, in the experiment with CCRF-CEM and in the experiment with U-251 was > 100 µM (inactive) throughout. Also, the GI50 in the experiment on SNB-75 and in the experiment on SK-OV-3 was > 100 µM (inactive) each time.

Turning to `COc1cc([C@@H]2c3cc4c(cc3[C@@H](OC(=O)c3ccccc3)C3COC(=O)[C@@H]32)OCO4)cc(OC)c1O` (some centres not stated), the GI50 in the experiment with OVCAR-5 was 68.9 µM (inactive); in the experiment on UO-31 it was 0.132 µM (active); in the experiment with K562, < 0.01 µM (active); in the experiment with HCT-116 it was < 0.01 µM (active); in the experiment with UACC-62, < 0.01 µM (active); in the experiment with KM12 it was < 0.01 µM (active). The GI50 is < 0.01 µM (active) in the experiment on SF-539; 0.012 µM (active) in the experiment on RPMI-8226; < 0.01 µM (active) in the experiment on SF-295; 0.0208 µM (active) with HOP-62; 0.0304 µM (active) in the experiment with CCRF-CEM; 0.0143 µM (active) in the experiment on U-251. Moreover, the GI50 with SNB-75 and in the experiment on SK-OV-3 was < 0.01 µM (active) each time.

`O=[PH](O)c1ccccn1`: the GI50 in the experiment on OVCAR-5, in the experiment on UO-31, with K562, in the experiment with HCT-116, with UACC-62 and in the experiment with KM12 was > 100 µM (inactive) each time. The GI50 in the experiment on SF-539, with OVCAR-3, with RPMI-8226, with SF-295, in the experiment on HOP-62 and in the experiment with CCRF-CEM was > 100 µM (inactive) each time. Besides, the GI50 in the experiment on U-251, in the experiment on SNB-75 and in the experiment with SK-OV-3 was > 100 µM (inactive) in each case.

For `CCOc1ccc(-c2oc(/C=N/NS(=O)(=O)c3ccc(C)cc3)c([N+](=O)[O-])c2-c2ccc(OCC)cc2)cc1`, the GI50 in the experiment with OVCAR-5 was 11.5 µM (inactive); in the experiment with UO-31, 12.7 µM (inactive); in the experiment on K562, 3.79 µM (inactive); with HCT-116, 2.03 µM (inactive); in the experiment on UACC-62, 7.11 µM (inactive); in the experiment on KM12 it was 8.81 µM (inactive). The GI50 is 16.1 µM (inactive) in the experiment with SF-539; 15.6 µM (inactive) with OVCAR-3; 2.58 µM (inactive) in the experiment on RPMI-8226; 14.4 µM (inactive) with SF-295; 21.3 µM (inactive) in the experiment on HOP-62; 2.54 µM (inactive) in the experiment on CCRF-CEM. The values for the GI50 with U-251, in the experiment on SNB-75 and in the experiment with SK-OV-3 were 8.22 µM (inactive), 4.19 µM (inactive) and 15.4 µM (inactive), respectively.

With `COc1ccc(OC)c(N2CC(N)C2=O)c1` (configuration not stated), the GI50 with UO-31, in the experiment on K562, in the experiment on HCT-116, in the experiment with UACC-62, in the experiment with KM12 and with SF-539 was > 100 µM (inactive) each time. Besides, the GI50 with OVCAR-3, in the experiment with RPMI-8226, in the experiment with SF-295, in the experiment on HOP-62, with CCRF-CEM and in the experiment on U-251 was > 100 µM (inactive) throughout. The GI50 with SNB-75 is 86.7 µM (inactive); in the experiment on SK-OV-3, > 100 µM (inactive).

The values above are taken from ChEMBL document CHEMBL1201862, “PubChem BioAssay data set” (2004).
